From patent publication US20120269815A1, “NEUROTROPHINS AND USES THEREOF” (Regents of the University of Minnesota, priority 2008, published 2012)
No end group written: not given here.

Experiments:
[1] = Food consumption after ICV TUF1 peptide infusion; format: in vivo; conditions: rat, ICV administration
Method: (§1) a) Intra-cerebroventricular (ICV) Cannulation Male Sprague-Dawley rats weighing 250-400 grams were anesthetized with ketamine (100 mg/kg) and xylazine (7 mg/kg) and placed in a stereotaxic device (David Kopf Instruments Corp., Tunjunga, Calif.) using atraumatic ear bars. An incision of the skin overlying the skull was made and anchor screws were inserted into the skull. Burr holes were drilled to allow the guide cannula to pass into the brain. The guide cannula (22-gauge, C313G; Plastics One, Roanoke, Va.) was placed at 0 mm posterior, 1.2 mm lateral and 3.5 mm ventral to bregma. The cannula was affixed using epoxy glue (Loctite 444; McMaster-Carr, Chicago, Ill.) followed by dental acrylic (Hygienic perm reline & repair resin, Type II, Class I; Henry Schein, Inc., Melville, N.Y.). The cannula was sealed and kept open by insertion of a ‘dummy’ cannula.
b) TUF1 Peptide Infusion 0 μg, 1 μg, or 10 μg TUF1 peptide diluted in artificial cerebrospinal fluid (aCSF, Harvard Apparatus, Holliston, Mass.) was injected into the brain through the in-dwelling cannulae immediately prior to behavioral measurement (described below). […]
Food intake, in grams, was measured by weighing food in the hopper daily for the two days prior to drug infusion and for the drug infusion days, and calculating the amount eaten by subtracting each day's food weight from that of the previous day.

[2] = Shock sensitization of startle after ICV TUF1 peptide infusion; format: in vivo, rat; conditions: adult male rats, 1.0 μg or 10 μg ICV
Method: as §1, with “cannula. […]” for “cannula.”
For fear potentiated startle, shock sensitization, and prepulse inhibition testing, animals were trained and tested in four identical 7.5 cm×9 cm×17 cm stabilimeter devices. […] Shock intensity was measured with a 1-kΩ resistor across a differential channel of an oscilloscope in series with a 100-kΩ resistor connected between two floor bars in each cage. Current was defined as the RMS voltage across the resistor and calculated in mA as 0.707×0.5 ×peak-to-peak voltage. […]

[3] = tested on: primary culture hypothalamic neurons; test: Activated-Caspase 3 expression in serum-deprived primary cultured hypothalamic neurons; format: cell-based, mouse; conditions: 48-hour serum deprivation; 50 nM TUF1[43-54] or 500 ng/ml anti-TUF1[43-54] IgG; preliminary qualitative analysis
Method: Gestational day 16.5 mouse embryos were collected from deeply anesthetized pregnant dam (i.p. injection of 10 mg/Kg Beuthanasia). Embryos were placed in HAM F12+10% Fetal Calf Serum (FCS)+1 mg/ml glucose. Whole brains were dissected and placed in a dish containing Phosphate Buffer Saline (PBS)+1 mg/ml glucose+10 mM HEPES. Hypothalami were dissected from embryonic brains and placed into a conical tube containing 2 ml HAM F12+10 mg/ml Glucose+10 mM HEPES. Cells were dissociated by pipetting and then centrifuged at 200×g for 5 minutes. Cells were suspended in culture medium (HAM F12+10% FCS+10 mg/ml glucose+10 mM HEPES+[…]) and plated at 200,000 cells/25 mm flask. Plated cells were incubated for four days in humidified incubator maintained at 37° C. and 5% CO2 (NuAire NU-8600, NuAire, Inc., Plymouth, Minn.).
To gain insight into the survival effect of TUF1[43-54] polypeptide, serum deprivation was used as a stressor. […] Cells were assessed for activated-Caspase 3 expression by immunocytochemistry after 48-hour incubation.
Cultured cells were rinsed with PBS (2×), fixed with 4% Paraformaldehyde (5 minutes) and permeabilized with PBS+0.1% Tween-20 (PBST). […] Excess antibody was removed by PBST and labeled cells were detected using IMMPACT DAB chromogen (Vector Laboratories, Inc., Burlingame, Calif.) per manufacturer's recommendation.

AYKSYVRALPLL [TUF1[43-54]]
food consumption [1]: influences food consumption
shock sensitization [2]: No effect
cell death (activated-Caspase 3) following serum-deprivation [3]: fewer cell death
